Test results taken from US20100197789A1, “ANTI-OBESITY AGENT AND USE THEREOF” (National University Corporation Nagoya University, priority 2006, published 2010).

Experiments:
Assay type in all cases: in vivo, mouse
[1] = test system: POMC mRNA; test: In situ hybridization, POMC mRNA in hypothalamic arcuate nucleus, db/db mice; settings: after 5 weeks, 1.1 and 2.7 mg/dl in drinking water, NIH image quantitation
Protocol: 5 week-old male C57BL/KsJ-db/db mice (db/db mice: body weight 19 to 25 g, Japan SLC, Inc.) were purchased and individually fed in tip cages. For the db/db mice, normal pellet diet (CE-2) was administered under free water intake and free food intake. A body weight and a food intake amount over 24 hours were measured every day from the start of feeding. On day 3 after the start of feeding, blood was taken from an orbit after 6 hour-fasting and a blood glucose level and a blood insulin concentration were measured. The db/db mice were divided into three groups (10 mice per each group) so that a body weight, a 24 hour-food intake amount, a blood glucose level, and a blood insulin concentration were equal, and defined to be a control group, a low concentration baclofen treated group, and a high concentration baclofen treated group. […] A food intake amount and a body weight were measured over time during the period of 5 week-administration of (±)-baclofen, blood was taken after the end of the 5-week administration, and the db/db mice were sacrificed by cervical luxation. […] The epididymal white adipose tissues and subcutaneous white adipose tissues were measured in weights, and then fixed in 4% formaldehyde and preserved at 4° C. […]

[2] = test system: db/db mice; test: Rectal temperature, oxygen consumption and motor activity, db/db mice
Protocol: 5 week-old male C57BL/KsJ-db/db mice (db/db mice: body weight 19 to 25 g, Japan SLC, Inc.) were purchased and individually fed in tip cages. For the db/db mice, normal pellet diet (CE-2) was administered under free water intake and free food intake. A body weight and a food intake amount over 24 hours were measured everyday from the start of feeding. On day 3 after the start of feeding, blood was taken from an orbit after 6 hour-fasting and a blood glucose level and a blood insulin concentration were measured. The db/db mice were divided into three groups (10 mice per each group) so that a body weight, a 24 hour-food intake amount, a blood glucose level, and a blood insulin concentration were equal, and defined to be a control group, an R-baclofen treated group, and an S-baclofen treated group. […] After division into the groups, from day 5 after the start of feeding, R-baclofen and S-baclofen were dissolved in drinking water and 5 week-continuous oral administration was started. Both of R-baclofen and S-baclofen were dissolved in drinking water at a concentration of 1.1 mg/dl used in the low concentration treated group in the experiment of baclofen racemic mixture administration. A food intake amount and a body weight were measured over time, and a rectal temperature was measured 5 weeks after the start of the administration. Blood was taken after the 5-week administration of baclofen, and the db/db mice were sacrificed by cervical luxation.
R-baclofen and S-baclofen were administered to db/db/mice and (±)-baclofen was administered to db/^+m mice respectively for 5 weeks, and rectal temperatures were then continuously measured for 3 days at 20 o'clock immediately before the dark period when feed intake was started in the mice. The method of measuring rectal temperatures was as follows. That is, the rectal temperatures were measured by using a digital thermistor (manufactured by NATSUME SEISAKUSHO CO., LTD.).
(±)-baclofen was orally administered to db/db mice and DIO mice for 5 weeks and rectal temperatures were measured 5 weeks after the start of the administration, and oxygen consumptions and motor activity were measured by using a small animal metabolism measuring system (model MK-5000: Muromachi Kikai Co., Ltd.).

[3] = test system: lean mice; test: Food intake amount and body weight, 5 week-continuous oral administration, non-obese lean mice; settings: lean mice (normal diet); oral 5 weeks; (±)-baclofen 5 mg/kg/day, SKF97541 0.3 mg/kg/day, 3-APPA 5 mg/kg/day
Protocol: 5 week-old male C57BL/6N mice (body weight 17 to 20 g, CLEA Japan, Inc.) were purchased and individually fed in tip cages. To the mice, normal pellet diet (CE-2) was administered under free water intake and free food intake. A body weight and a food intake amount over 24 hours were measured every day from the start of feeding. On day 3 after the start of feeding, blood was taken from an orbit after 6 hour-fasting and a blood glucose level and a blood insulin concentration were measured. The mice were divided into a control group and a baclofen treated group (10 mice per each group) so that a body weight, a 24 hour-food intake amount, a blood glucose level, and a blood insulin concentration were equal, and diet induced-obesity (DIO) was started to be induced by administration of high fat diet (High Fat Diet 32, energy fat ratio 60%, CLEA Japan, Inc.) (DIO mice). At the same time as the start of administering the high fat diet, (±)-baclofen was dissolved in drinking water and 5 week-continuous oral administration was started in a dosage of 5 mg per 1 kg of a body weight in 1 day (5 mg/kg/day). A food intake amount and a body weight were measured over time during the 5 week-administration period. (±)-baclofen (5 mg/kg/day) was orally administered also to C57BL/6N mice (lean mice) that are non-obese mice to which normal diet was administered in the same manner as described above, and a food intake amount and a body weight were measured over time.
5 week-old male C57BL/6N mice (body weight 17 to 20 g, CLEA Japan, Inc.) were purchased and individually fed in tip cages. Normal pellet diet (CE-2) was administered to the mice under free water intake and free food intake. A body weight and a food intake amount over 24 hours were measured every day from the start of feeding. On day 3 after the start of feeding, blood was taken from an orbit after 6 hour-fasting and a blood glucose level and a blood insulin concentration were measured. The mice were divided into a control group, an SKF97541 treated group and a 3-APPA treated group (10 mice per each group) so that a body weight, a 24 hour-food intake amount, a blood glucose level, and a blood insulin concentration were equal, and diet induced-obesity (DIO) was started to be induced by administration of high fat diet (High Fat Diet 32, energy fat ratio 60%, CLEA Japan, Inc.) (DIO mice). At the same time as the start of administering the high fat diet, SKF97541 (0.3 mg/kg/day) or 3-APPA (5 mg/kg/day) was dissolved in drinking water and 5 week-continuous oral administration was started. A food intake amount and a body weight were measured over time during the 5 week-administration period. SKF97541 (0.3 mg/kg/day) or 3-APPA (5 mg/kg/day) was orally administered also to C57BL/6N mice (lean mice) to which normal diet was administered in the same manner as described above, and a food intake amount and a body weight were measured over time.

With NCC(CC(=O)O)c1ccc(Cl)cc1 (racemic) [(±)-baclofen, (RS)-4-amino-3-(4-chlorophenyl)butanoic acid] the “expression of POMC mRNA in the hypothalamic arcuate nucleus” value [1] was “significantly enhanced”, the oxygen consumption ([2]; (±)-baclofen oral 5 weeks) was “significantly increased” and the “body temperature (rectal)” value ([2]; (±)-baclofen oral, 5 weeks after start of administration) was “significantly raised”. For the same compound, the body weight [3] was “did not give significant effects” and the food intake amount [3] was “did not give significant effects”.
